Assay results as given in patent US8546320B2, “Hsp9O-targeted anti-cancer chimeric peptide” (Kyoto University, priority 2008, dated 2013).
Where a SMILES comes first, the peptide text is derived from it.

Columns and labels:
Caki-1 = assay type: cell-based, human; details: Caki-1; for Anti-cancer activity (% relative to wild-type peptide) / Decrease in cell survival rate (% relative to wild-type peptide): wild-type peptide = 100%
U937 = test: cells; assay type: cell-based, human; details: for Anti-cancer activity (% relative to wild-type peptide) / Decrease in cell survival rate (% relative to wild-type peptide) / killing effect compared with the wild-type peptide: U937; for Anti-cancer activity (% relative to wild-type peptide) / Decrease in cell survival rate (% relative to wild-type peptide): wild-type peptide = 100%
Method: A total of 3×10^3 cells per well were inoculated onto a 96 well plate, and incubated in a medium containing 10% FBS with 100 μl of a peptide diluted stepwise at 37° C. for 48 to 72 hours. The survival rate of the cells was measured by using WST-8 solution (Cell Count Reagent SF; Nacalai Tesque, Inc.).

cancer cells = test: Cell viability assay, summary statements on cancer cells; assay type: cell-based; details: single mutation in TPR or Antp region of Antp-TPR

Compound | Anti-cancer activity (% relative to wild-type peptide) (Caki-1) [%] | Decrease in cell survival rate (% relative to wild-type peptide) (Caki-1) [%] | Cell Survival Rate (%) (U937) | Anti-cancer activity (% relative to wild-type peptide) (U937) [%] | Decrease in cell survival rate (% relative to wild-type peptide) (U937) [%] | effect compared with the wild-type protein (summary of mutations) (cancer cells) | killing effect compared with the wild-type peptide (U937) | killing effect compared with the wild-type peptide (Caki-1)
CC[C@H](C)[C@H](NC(=O)[C@H](CCCNC(=N)N)NC(=O)[C@H](C)NC(=O)[C@H](Cc1ccc(O)cc1)NC(=O)[C@H](C)NC(=O)[C@H](C)NC(=O)[C@H](CCCCN)NC(=O)[C@H](CCCCN)NC(=O)[C@H](Cc1c[nH]c2ccccc12)NC(=O)[C@H](CCCCN)NC(=O)[C@H](CCSC)NC(=O)[C@H](CCCNC(=N)N)NC(=O)[C@H](CCCNC(=N)N)NC(=O)[C@H](CC(N)=O)NC(=O)[C@H](CCC(N)=O)NC(=O)[C@H](Cc1ccccc1)NC(=O)[C@H](Cc1c[nH]c2ccccc12)NC(=O)[C@@H](NC(=O)[C@H](CCCCN)NC(=O)[C@@H](NC(=O)[C@H](CCC(N)=O)NC(=O)[C@@H](N)CCCNC(=N)N)[C@@H](C)CC)[C@@H](C)CC)C(=O)NCC(=O)N[C@@H](CC(N)=O)C(=O)N[C@@H](CO)C(=O)N[C@@H](Cc1ccc(O)cc1)C(=O)N[C@@H](Cc1ccccc1)C(=O)N[C@@H](CCCCN)C(=O)O [Antp-K1A] (H-RQIKIWFQNRRMKWKKAAYARIGNSYFK-OH; N-terminus and C-terminus assumed) | 20.29 | 13.04 | 93.55 | 8.41 | 24.84 | effective but with a lower effect than the wild-type protein |  | 
CC[C@H](C)[C@H](NC(=O)[C@H](CCCNC(=N)N)NC(=O)[C@H](C)NC(=O)[C@H](Cc1ccc(O)cc1)NC(=O)[C@H](C)NC(=O)[C@H](CCCCN)NC(=O)[C@H](CCCCN)NC(=O)[C@H](CCCCN)NC(=O)[C@H](Cc1c[nH]c2ccccc12)NC(=O)[C@H](CCCCN)NC(=O)[C@H](CCSC)NC(=O)[C@H](CCCNC(=N)N)NC(=O)[C@H](CCCNC(=N)N)NC(=O)[C@H](CC(N)=O)NC(=O)[C@H](CCC(N)=O)NC(=O)[C@H](Cc1ccccc1)NC(=O)[C@H](Cc1c[nH]c2ccccc12)NC(=O)[C@@H](NC(=O)[C@H](CCCCN)NC(=O)[C@@H](NC(=O)[C@H](CCC(N)=O)NC(=O)[C@@H](N)CCCNC(=N)N)[C@@H](C)CC)[C@@H](C)CC)C(=O)NCC(=O)N[C@@H](CC(N)=O)C(=O)N[C@@H](CO)C(=O)N[C@@H](Cc1ccc(O)cc1)C(=O)N[C@@H](Cc1ccccc1)C(=O)N[C@@H](CCCNC(=N)N)C(=O)O [Antp-K12R] (H-RQIKIWFQNRRMKWKKKAYARIGNSYFR-OH; N-terminus and C-terminus assumed) | 90.20 | 54.95 | 21.95 | 101.68 | 105.89 | effect similar to that of the wild-type protein | increase in effect | 
CC[C@H](C)[C@H](NC(=O)[C@H](CCCNC(=N)N)NC(=O)[C@H](C)NC(=O)[C@H](CC(C)C)NC(=O)[C@H](C)NC(=O)[C@H](CCCCN)NC(=O)[C@H](CCCCN)NC(=O)[C@H](CCCCN)NC(=O)[C@H](Cc1c[nH]c2ccccc12)NC(=O)[C@H](CCCCN)NC(=O)[C@H](CCSC)NC(=O)[C@H](CCCNC(=N)N)NC(=O)[C@H](CCCNC(=N)N)NC(=O)[C@H](CC(N)=O)NC(=O)[C@H](CCC(N)=O)NC(=O)[C@H](Cc1ccccc1)NC(=O)[C@H](Cc1c[nH]c2ccccc12)NC(=O)[C@@H](NC(=O)[C@H](CCCCN)NC(=O)[C@@H](NC(=O)[C@H](CCC(N)=O)NC(=O)[C@@H](N)CCCNC(=N)N)[C@@H](C)CC)[C@@H](C)CC)C(=O)NCC(=O)N[C@@H](CC(N)=O)C(=O)N[C@@H](CO)C(=O)N[C@@H](Cc1ccc(O)cc1)C(=O)N[C@@H](Cc1ccccc1)C(=O)N[C@@H](CCCCN)C(=O)O [Antp-Y3L] (H-RQIKIWFQNRRMKWKKKALARIGNSYFK-OH; N-terminus and C-terminus assumed) | 52.87 | 20.23 | 60.94 | 50.89 | 38.14 | effective but with a lower effect than the wild-type protein |  | 
CC[C@H](C)[C@H](NC(=O)[C@H](CCCNC(=N)N)NC(=O)[C@H](C)NC(=O)[C@H](Cc1ccc(O)cc1)NC(=O)[C@H](C)NC(=O)[C@H](CCCCN)NC(=O)[C@H](CCCCN)NC(=O)[C@H](CCCCN)NC(=O)[C@H](Cc1c[nH]c2ccccc12)NC(=O)[C@H](CCCCN)NC(=O)[C@H](CCSC)NC(=O)[C@H](CCCNC(=N)N)NC(=O)[C@H](CCCNC(=N)N)NC(=O)[C@H](CC(N)=O)NC(=O)[C@H](CCC(N)=O)NC(=O)[C@H](Cc1ccccc1)NC(=O)[C@H](Cc1c[nH]c2ccccc12)NC(=O)[C@@H](NC(=O)[C@H](CCCCN)NC(=O)[C@@H](NC(=O)[C@H](CCC(N)=O)NC(=O)[C@@H](N)CCCNC(=N)N)[C@@H](C)CC)[C@@H](C)CC)C(=O)NCC(=O)N[C@@H](CC(N)=O)C(=O)N[C@@H](CO)C(=O)N[C@@H](Cc1ccc(O)cc1)C(=O)N[C@@H](Cc1ccc(O)cc1)C(=O)N[C@@H](CCCCN)C(=O)O [Antp-F11Y] (H-RQIKIWFQNRRMKWKKKAYARIGNSYYK-OH; N-terminus and C-terminus assumed) | 110.50 | 820.08 | 1.10 | 128.84 | 2116.95 | effect higher than the wild-type protein | increase in effect | stronger than that of the wild-type peptide
CC[C@H](C)[C@H](NC(=O)[C@H](CCCCN)NC(=O)[C@H](C)NC(=O)[C@H](Cc1ccc(O)cc1)NC(=O)[C@H](C)NC(=O)[C@H](CCCCN)NC(=O)[C@H](CCCCN)NC(=O)[C@H](CCCCN)NC(=O)[C@H](Cc1c[nH]c2ccccc12)NC(=O)[C@H](CCCCN)NC(=O)[C@H](CCSC)NC(=O)[C@H](CCCNC(=N)N)NC(=O)[C@H](CCCNC(=N)N)NC(=O)[C@H](CC(N)=O)NC(=O)[C@H](CCC(N)=O)NC(=O)[C@H](Cc1ccccc1)NC(=O)[C@H](Cc1c[nH]c2ccccc12)NC(=O)[C@@H](NC(=O)[C@H](CCCCN)NC(=O)[C@@H](NC(=O)[C@H](CCC(N)=O)NC(=O)[C@@H](N)CCCNC(=N)N)[C@@H](C)CC)[C@@H](C)CC)C(=O)NCC(=O)N[C@@H](CC(N)=O)C(=O)N[C@@H](CO)C(=O)N[C@@H](Cc1ccc(O)cc1)C(=O)N[C@@H](Cc1ccccc1)C(=O)N[C@@H](CCCCN)C(=O)O [Antp-R5K] (H-RQIKIWFQNRRMKWKKKAYAKIGNSYFK-OH; N-terminus and C-terminus assumed) | 6.58 | 11.34 | 92.57 | 9.68 | 25.10 | effective but with a lower effect than the wild-type protein |  | 
CC[C@H](C)[C@H](NC(=O)[C@H](CCCNC(=N)N)NC(=O)[C@H](C)NC(=O)[C@H](Cc1ccc(O)cc1)NC(=O)[C@H](C)NC(=O)[C@H](CCCNC(=N)N)NC(=O)[C@H](CCCCN)NC(=O)[C@H](CCCCN)NC(=O)[C@H](Cc1c[nH]c2ccccc12)NC(=O)[C@H](CCCCN)NC(=O)[C@H](CCSC)NC(=O)[C@H](CCCNC(=N)N)NC(=O)[C@H](CCCNC(=N)N)NC(=O)[C@H](CC(N)=O)NC(=O)[C@H](CCC(N)=O)NC(=O)[C@H](Cc1ccccc1)NC(=O)[C@H](Cc1c[nH]c2ccccc12)NC(=O)[C@@H](NC(=O)[C@H](CCCCN)NC(=O)[C@@H](NC(=O)[C@H](CCC(N)=O)NC(=O)[C@@H](N)CCCNC(=N)N)[C@@H](C)CC)[C@@H](C)CC)C(=O)NCC(=O)N[C@@H](CC(N)=O)C(=O)N[C@@H](CO)C(=O)N[C@@H](Cc1ccc(O)cc1)C(=O)N[C@@H](Cc1ccccc1)C(=O)N[C@@H](CCCCN)C(=O)O [Antp-K1R] (H-RQIKIWFQNRRMKWKKRAYARIGNSYFK-OH; N-terminus and C-terminus assumed) | 35.81 | 15.70 | 91.39 | 11.22 | 25.43 | effective but with a lower effect than the wild-type protein |  | 
CC[C@H](C)[C@H](NC(=O)[C@H](CCCNC(=N)N)NC(=O)[C@H](C)NC(=O)[C@H](Cc1ccc(O)cc1)NC(=O)[C@H](C)NC(=O)[C@H](CCCCN)NC(=O)[C@H](CCCCN)NC(=O)[C@H](CCCCN)NC(=O)[C@H](Cc1c[nH]c2ccccc12)NC(=O)[C@H](CCCCN)NC(=O)[C@H](CCSC)NC(=O)[C@H](CCCNC(=N)N)NC(=O)[C@H](CCCNC(=N)N)NC(=O)[C@H](CC(N)=O)NC(=O)[C@H](CCC(N)=O)NC(=O)[C@H](Cc1ccccc1)NC(=O)[C@H](Cc1c[nH]c2ccccc12)NC(=O)[C@@H](NC(=O)[C@H](CCCCN)NC(=O)[C@@H](NC(=O)[C@H](CCC(N)=O)NC(=O)[C@@H](N)CCCNC(=N)N)[C@@H](C)CC)[C@@H](C)CC)C(=O)NCC(=O)N[C@@H](CCC(N)=O)C(=O)N[C@@H](CO)C(=O)N[C@@H](Cc1ccc(O)cc1)C(=O)N[C@@H](Cc1ccccc1)C(=O)N[C@@H](CCCCN)C(=O)O [Antp-N8Q] (H-RQIKIWFQNRRMKWKKKAYARIGQSYFK-OH; N-terminus and C-terminus assumed) | 98.57 | 89.35 | 10.06 | 117.17 | 230.94 | effect higher than the wild-type protein | increase in effect | 
